The source of these data is US20250235448A1, “COMBINATION THERAPY FOR TREATING CANCER” (AstraZeneca AB, priority 2022, published 2025).

In data set [1] the test system is CYP3A4. Conditions: literature statement (Gibbons 2015, Dirix 2016); cited from earlier work.
The subject of data set [2] is LnCAP 95. Briefly: Cell proliferation / viability assay (7 days after treatment), AC50 and HSA combination benefit. Conditions: LnCAP 95 (mCRPC) cells; monotherapy; mean of two independent experiments each in triplicate. The format is cell-based. The procedure:
(§1) The following cell lines were originally obtained from ATCC:
(§2) Cell line identification was validated using the CellCheck assay (IDEXX Bioanalytics, Westbrook, ME, USA). All cell lines were validated free of virus Mycoplasma contamination using the MycoSEQ assay (Thermo Fisher Scientific, Waltham, MA, USA) or STAT-Myco assay (IDEXX Bioanalytics). All cell lines were grown RPMI-1640 growth media (Corning 17-105-CV) supplemented with 10% fetal bovine serum (FBS) or, when indicated, 10% charcoal stripped FBS (ThermoFisher Scientific, 12676029) and 2 mM glutamine.
(§3) Cells in 384-well or 96-well plates were dosed using an Echo 555 (LabCyte, San Jose, CA, USA) or using the HP D300e Digital Dispenser (HP Life Science Dispensing), respectively. Live cell count pre- and post-treatment (7 days after treatment) was determined using CellTiter-Glo as per manufacturer's instructions (Promega, Madison, WI, USA; G7570).
(§4) Cell viability was determined with the Sytox Green assay as described in Davies 2012 and the AC50 calculated. The HSA (Highest Single Agent) Synergy Score was calculated according to Bernenbaum 1989.

Data set [3] concerns LnCAP. Described as above. The format is cell-based. As to conditions: Homo sapiens; LnCAP (mHSPC) cells; monotherapy; mean of two independent experiments each in triplicate. The procedure: as §1, §2, §3, §4
Data set [4] has as its system CWR22Pc-R1-AD1. The description is as above. The format is cell-based. The method, then: as §1
Cell line identification was validated using the CellCheck assay (IDEXX Bioanalytics, Westbrook, ME, USA). All cell lines were validated free of virus Mycoplasma contamination using the MycoSEQ assay (Thermo Fisher Scientific, Waltham, MA, USA) or STAT-Myco assay (IDEXX Bioanalytics).
Live cell count pre- and post-treatment (7 days after treatment) was determined using CellTiter-Glo as per manufacturer's instructions (Promega, Madison, WI, USA; G7570).

The test system of data set [5] is non-metastatic CRPC. Conditions: patients with non-metastatic CRPC, ARAMIS trial; placebo 18.5 months; cited from earlier work.

Structures are written as SMILES. Where two headings read alike, the source gives them in different places.

With `CNC(=O)c1ccc(N2C(=S)N(c3ccc(C#N)c(C(F)(F)F)c3)C(=O)C2(C)C)cc1F` [enzalutamide], in data set [1], the “CYP3A4 interaction (inducer / substrate)” value is on record as “strong CYP3A4 inducer”.
For orientation: AC50 means the concentration giving half of the maximal activity seen. As for `CC(O)c1cc(C(=O)N[C@@H](C)Cn2ccc(-c3ccc(C#N)c(Cl)c3)n2)n[nH]1` (stereo partly drawn) [Darolutamide, N—((S)-1-(3-(3-chloro-4-cyanophenyl)-1H-pyrazol-1-yl)propan-2-yl)-5-(1-hydroxyethyl)-1H-pyrazole-3-carboxamide], the values for the AC50 in data set [2], in data set [3] and in data set [4] were 17500 nM, 3630 nM and 65.5 nM, respectively. Also, in data set [5], the metastasis free survival was 40.4 months.
Take `O=C(c1cc(Cc2n[nH]c(=O)c3ccccc23)ccc1F)N1CCN(C(=O)C2CC2)CC1` [Olaparib]: the “CYP3A4 interaction (inducer / substrate)” value in data set [1] is reported as “substrate of CYP3A4”.
Regarding `CCc1cc2ncc(CN3CCN(c4ccc(C(=O)NC)nc4)CC3)cc2[nH]c1=O` [AZD5305, 5-{4-[(7-ethyl-6-oxo-5,6-dihydro-1,5-naphthyridin-3-yl)methyl]piperazin-1-yl}-N-methylpyridine-2-carboxamide], the AC50 stood at 700 nM in data set [2]; 285 nM in data set [3]; 5.66 nM in data set [4] (CWR22Pc-R1-AD1 (mCRPC) cells, monotherapy, mean of two independent experiments each in triplicate, read-out: AC50).
